Measured values as given in patent publication US20100210017A1, “COMPOSITIONS AND METHODS FOR ENHANCING TOLERANCE FOR THE PRODUCTION OF ORGANIC CHEMICALS PRODUCED BY MICROORGANISMS” (priority 2007, published 2010).
Converted amounts (≈) assume the structure as drawn. Read-outs that look alike come from different tables or passages of the source.

Experiments:
Type in all cases: cell-based
E. coli Mach1 = experiment: Minimum inhibitory concentration of acrylic acid in minimal media; details: Escherichia coli
Experimental: 3-HP composition obtained, for example, from TCI America for initial library selections and all subsequent growth confirmations can contain variable amounts of acrylic acid contamination. A minimum inhibitory concentration of acrylic acid for E. coli Mach1 grown in minimal media was determined to be around 0.6 g/L. In support that the tolerance mechanism specific to the chorismate super-pathway are exclusive to 3-HP toxicity, the minimum inhibitory concentrations of acrylic acid was determined to be 0.6 g/L for E. coli Mach1 grown in minimal media supplemented with addition of shikimate or homocysteine. Additionally, the minimal inhibitory concentration was determined to be 0.6 g/L for the feedback resistant aroH mutants grown in minimal media.

[1] = tested on: Escherichia coli strain Mach1-T1^R containing pSMART-LCKAN empty vector; experiment: Growth confirmations: media supplementation in presence of 3-HP; details: for effect on specific growth in the presence of 3-HP: supplementation of the growth medium, 3-HP present
Description: Some methods concern wild-type Escherichia coli K12 (ATCC # 29425) used for the preparation of genomic DNA. Genomic libraries were constructed using the pSMART-LCKAN (Lucigen, Middleton, Wis.). Libraries were introduced into Escherichia coli strain Mach1-T1^R (Invitrogen, Carlsbad, Calif.) for selections as previously detailed. Mach1-T1^R containing pSMART-LCKAN empty vector were used for all control studies. Growth curves were done in MOPS Minimal Media. In this example, the antibiotic concentration was 20 ug kanamycin/mL.
Overnight cultures of Mach1-T1^R+pSMART LC-KAN were inoculated into 5 mL LB+kanamycin. Growth curves were constructed by inoculating into 15 mL screw cap tubes containing supplements (Table 1) and 15 mL MOPS Minimal Media+kanamycin+3-HP from overnight culture. Cultures were incubated at 37° C. and optical density was monitored to an OD600>0.2. Cultures were then diluted to an exact OD600=0.2 and were used to inoculate cultures containing 15 mL MOPS Minimal Media+kanamycin+3-HP (pH=7.0) to an initial optical density of […] in order to minimize effects of growth in stationary phase. Optical density was monitored and recorded over the entire range of microaerobic growth in minimal media, or until a final OD600 0.5-0.6. Growth parameters were evaluated in terms of specific growth, OD600 at the culmination of the growth phase (approximately 14 hours), and OD600 at conclusion of maximum growth phase and final OD600 (24 hrs). To address specific intermediate limitations, associated chorismate pathway supplements were added to final concentrations listed in Table 1.
To confirm these findings, the culture medium was supplemented with products synthesized downstream of chorismate. The addition of each product individually stimulated growth, further confirming that the inhibition is occurring at, or prior to synthesis of chorismate (FIG. 3B). FIG. 3B represents growth confirmations: addition of products downstream of chorismate partially alleviate growth inhibition confirmed by increased specific growth (black) and increased OD600 at the culmination of the growth phase (grey). However, increasing the supplementation of several downstream products (tyrosine, phenylalanine, tryptophan) results in feedback inhibition of the first committed step to the chorismate super-pathway and will therefore reduce formation of other downstream products including ubiquinone, meniquinone, and tetrahydrofolate and limit the associated growth benefits.

[2] = tested on: E. coli (vector control; clone expressing aroH mutant); experiment: 24 hour minimum inhibitory concentration of 3-HP in M9 minimal media; details: Escherichia coli
Experimental: By use of the SCALEs methodology, a number of genetic targets for alleviating growth inhibition in the presence of 3-HP have been identified. […] A clone was constructed containing the tyrA-aroF operon and was cultured in the presence of 20 g/L 3-HP. Increased copy of this region partially alleviated growth inhibition, conferring a 15% increase in specific growth. […] One method to bypass this inherent control was obtaining an inducible feedback resistant aroH mutant that will increase the conversion of E-4-P while maintaining activity in the presence of increasing pools of downstream products, thus alleviating growth inhibition due to impaired synthesis of necessary byproducts of the chorismate pathway. […] In addition, the 24 hour minimum inhibitory concentration of 3-HP (the minimum concentration to stop visible growth at 24 hours) in M9 minimal media increased from 25 g/L for a vector control to 40 g/L for an E. coli clone expressing this aroH mutant. In certain embodiments herein, it is contemplated that the aroH mutant can be of use alone, or in combination with other genetic manipulations or selection to increase tolerance of 3-HP production in microorganisms.

[3] = tested on: bacterial culture capable of producing 3-HP; experiment: 3-HP production with exogenously added tyrosine; details: 0.2 mM tyrosine added to culture
Experimental: In certain embodiments, exogenously added tyrosine can be added to a bacterial culture capable of producing 3-HP. In certain particular embodiments, tyrosine concentrations can be about 0.05 mM to about 0.5 mM. In one example, 0.2 mM tyrosine was added to a culture and the increase in 3-HP production was about 35%.

With `C=CC(=O)O` [acrylic acid] the MIC (E. coli Mach1; MACH1, E. coli Mach1, minimal media supplemented with shikimate or homocysteine, read-out: minimum inhibitory concentration) was 600 µg/mL (≈ 8.33 mM), the MIC (E. coli Mach1; MACH1, E. coli Mach1 grown in minimal media, read-out: minimum inhibitory concentration) was about 600 µg/mL (≈ 8.33 mM) and the MIC (E. coli Mach1; MACH1, read-out: minimal inhibitory concentration, feedback resistant aroH mutants grown in minimal media) was 600 µg/mL (≈ 8.33 mM).
For `N[C@@H](Cc1ccccc1)C(=O)O` [Phenylalanine, phenylalanine], the “effect on specific growth in the presence of 3-HP” value (shortened to “effect on specific growth”) [1] was “detrimental effect”.
`O=C(O)CCO` [3-HP, 3-hydroxypropionic acid] gave an MIC ([2]; read-out: 24 hour minimum inhibitory concentration (minimum concentration to stop visible growth at 24 hours), M9 minimal media, E. coli clone expressing feedback resistant aroH mutant) of 40000 µg/mL and an MIC ([2]; read-out: 24 hour minimum inhibitory concentration (minimum concentration to stop visible growth at 24 hours), M9 minimal media, vector control) of 25000 µg/mL.
For `N[C@@H](Cc1ccc(O)cc1)C(=O)O` [Tyrosine, tyrosine], the “effect on specific growth” value [1] was “beneficial effect” and the “increase in 3-HP production” value [3] was “about 35%”.
`O=C(O)C1=C[C@@H](O)[C@@H](O)[C@H](O)C1` [Shikimate, shikimate] was tested, and the “regeneration of growth compared with wild-type growth” value ([1]; addition of shikimate to growth media under 3-HP stress) was “about 20%” and the “effect on specific growth” value [1] was “dramatic increase in growth”.
